In assay [1] the target is PIM1 (Homo sapiens, UniProt P11309). Briefly: KinaseGlo Pim1 ATP depletion assay. Type of assay: biochemical. Summed up: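 2.5 nM PIM1 preincubated 15 min with compound and 40 μM BAD peptide in 50 mM HEPES pH 7.5, 5 mM MgCl2, 1 mM DTT, 0.05% BSA, 2.5% DMSO. The reaction was started with 20 μM ATP (final) and run to about 50% ATP depletion. Remaining ATP read by KinaseGlo Plus luminescence to give IC50.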
Background: In Kinase-Glo more light means more ATP remaining.

The target in assay [2] is PIM2 (Homo sapiens, UniProt Q9P1W9). Briefly: KinaseGlo Pim2 ATP depletion assay. In kind it is biochemical. The gist of the method:
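Luminescent ATP-depletion read-out of PIM2 phosphorylating BAD peptide (RSRHSSYPAGT-OH). Final conditions: 5 nM PIM2, 4 μM ATP, 10 μM peptide, 2.5% DMSO in 50 mM HEPES pH 7.5, 5 mM MgCl2, 1 mM DTT, 0.05% BSA. Enzyme–peptide preincubated 15 min with compound; reaction run to ~50% ATP depletion.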

The target in assay [3] is PIM3 (Homo sapiens, UniProt Q86V86). Briefly: KinaseGlo Pim3 ATP depletion assay. Type of assay: biochemical. The gist of the method:
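Kinase was preincubated 15 min with BAD peptide in HEPES pH 7.5/MgCl2/DTT/BSA before ATP was added. Final concentrations were 40 μM ATP, 100 μM BAD peptide and 2.5% DMSO, with 5 nM enzyme. The reaction ran to ~50% ATP depletion and remaining ATP was read by KinaseGlo Plus luminescence.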

Assay [4] concerns the target GSK3β (Homo sapiens, UniProt P49841). Briefly: GSK3β ATP depletion assay. In kind it is biochemical. Conditions: read-out: GSK3b IC50. Summed up: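 Human GSK3β (5 nM) preincubated 15 min with 10 μM biotinylated phospho-CREB peptide in pH 7.5 Tris buffer (15 mM MgCl2, 1 mM DTT, 0.1% BSA, 2.5% DMSO). Reaction started with 2 μM ATP and run to about 50% ATP depletion. Remaining ATP measured by KinaseGlo luminescence.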

In assay [5] the test system is KMS11 (human myeloma cell line). Briefly: Cell proliferation assay (CellTiter-Glo), KMS11. In kind it is cell-based. Conditions: KMS11-Luc cells. The gist of the method: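 KMS11 cells in IMDM with 10% FBS and sodium pyruvate, seeded at 2000 cells/well on assay day. Compound added at 2× to equal volume of cells, incubated 3 days at 37° C. Viability read by CellTiter-Glo luminescence; EC50 derived.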
(ATP-based viability assays read luminescence as a measure of living cells.)

Assay [6] concerns the target T1, hERG (Homo sapiens, UniProt Q12809).
T1 construct: host or cells: crude membrane suspension
As to the kind of experiment: hERG binding assay ([3H] dofetilide displacement). Particulars: dofetilide displacement; read-out: HERGdof IC50. The protocol: Compounds of the invention were pipetted into each well of pre-wet 96-well Millipore GF/C filter plates (#MSFCN6B50): 119 μl assay buffer, 1 μl test compound in 100% DMSO (or 100% DMSO only for total binding), 40 μl [3H] dofetilide (12.5 nM, final concentration 2.5 nM; Novartis radioisotope laboratory, East Hanover, N.J., USA, specific activity 15-45 Ci/mmol); 40 μl crude membrane suspension (ca. 15 μg protein). The final concentration of DMSO during the incubation was 0.5%. Incubations were performed at room temperature for 90 min. Non-specific binding (NSB) was defined as the binding remaining in the presence of 25 μM terfenadine (Sigma T9652). The incubations were terminated by rapid filtration on a Millipore filtration manifold, followed by three washes of 200 μA ice-cold assay buffer. The plates were left to dry overnight before adding 40 μA scintillant (MicroScint-20). The plates were then sealed (Sealing Tape SI, Nunc 236366) and read in a Wallac MicroBeta Trilux beta-counter for 1.5 min per well. Compounds were tested as 9-concentration response curves in duplicate, ranging from 30 μM to 3 nM in 1:3 dilution steps. Dilution curves were prepared in 100% DMSO. The reference compound (terfenadine) was tested as an eight-concentration response curve, ranging from 10 μM to 0.6 nM in 1:4 dilution steps.

The results in this text go back to patent US20130109682A1, “CYCLIC ETHER COMPOUNDS USEFUL AS KINASE INHIBITORS” (NOVARTIS AG, priority 2010, published 2013).

Each structure is given as a SMILES string.

Sequence of PIM1 (P11309 whole entry): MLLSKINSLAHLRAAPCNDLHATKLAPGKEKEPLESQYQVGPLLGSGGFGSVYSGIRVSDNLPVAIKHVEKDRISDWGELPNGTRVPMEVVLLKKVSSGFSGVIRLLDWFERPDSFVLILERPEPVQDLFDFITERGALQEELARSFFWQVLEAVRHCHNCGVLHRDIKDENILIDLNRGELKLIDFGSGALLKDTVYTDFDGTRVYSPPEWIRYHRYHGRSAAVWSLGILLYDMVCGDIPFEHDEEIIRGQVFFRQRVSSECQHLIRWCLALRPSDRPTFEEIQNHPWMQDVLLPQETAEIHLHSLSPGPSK
Sequence of GSK3β (P49841 whole entry, species assumed): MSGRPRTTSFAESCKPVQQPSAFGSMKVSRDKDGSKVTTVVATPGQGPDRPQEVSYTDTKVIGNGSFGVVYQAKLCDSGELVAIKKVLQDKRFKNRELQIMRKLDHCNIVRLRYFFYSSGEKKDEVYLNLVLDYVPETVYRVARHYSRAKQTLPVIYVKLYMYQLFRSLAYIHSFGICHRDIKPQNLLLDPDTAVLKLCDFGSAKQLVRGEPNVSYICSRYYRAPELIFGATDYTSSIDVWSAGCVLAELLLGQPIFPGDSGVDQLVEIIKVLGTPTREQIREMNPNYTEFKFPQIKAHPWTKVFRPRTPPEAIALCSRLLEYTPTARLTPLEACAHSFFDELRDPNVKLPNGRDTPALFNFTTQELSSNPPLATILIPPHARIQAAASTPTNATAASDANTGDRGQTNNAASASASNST
Sequence of PIM2 (Q9P1W9 whole entry): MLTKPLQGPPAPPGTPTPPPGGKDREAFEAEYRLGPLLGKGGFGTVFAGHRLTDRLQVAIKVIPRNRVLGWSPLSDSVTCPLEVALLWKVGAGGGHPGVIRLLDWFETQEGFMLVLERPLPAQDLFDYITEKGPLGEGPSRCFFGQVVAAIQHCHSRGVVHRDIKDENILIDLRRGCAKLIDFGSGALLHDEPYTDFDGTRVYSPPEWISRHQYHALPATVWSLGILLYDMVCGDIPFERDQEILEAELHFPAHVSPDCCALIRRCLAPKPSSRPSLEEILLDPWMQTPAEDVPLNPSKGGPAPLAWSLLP
T1 sequence (Q12809 whole entry): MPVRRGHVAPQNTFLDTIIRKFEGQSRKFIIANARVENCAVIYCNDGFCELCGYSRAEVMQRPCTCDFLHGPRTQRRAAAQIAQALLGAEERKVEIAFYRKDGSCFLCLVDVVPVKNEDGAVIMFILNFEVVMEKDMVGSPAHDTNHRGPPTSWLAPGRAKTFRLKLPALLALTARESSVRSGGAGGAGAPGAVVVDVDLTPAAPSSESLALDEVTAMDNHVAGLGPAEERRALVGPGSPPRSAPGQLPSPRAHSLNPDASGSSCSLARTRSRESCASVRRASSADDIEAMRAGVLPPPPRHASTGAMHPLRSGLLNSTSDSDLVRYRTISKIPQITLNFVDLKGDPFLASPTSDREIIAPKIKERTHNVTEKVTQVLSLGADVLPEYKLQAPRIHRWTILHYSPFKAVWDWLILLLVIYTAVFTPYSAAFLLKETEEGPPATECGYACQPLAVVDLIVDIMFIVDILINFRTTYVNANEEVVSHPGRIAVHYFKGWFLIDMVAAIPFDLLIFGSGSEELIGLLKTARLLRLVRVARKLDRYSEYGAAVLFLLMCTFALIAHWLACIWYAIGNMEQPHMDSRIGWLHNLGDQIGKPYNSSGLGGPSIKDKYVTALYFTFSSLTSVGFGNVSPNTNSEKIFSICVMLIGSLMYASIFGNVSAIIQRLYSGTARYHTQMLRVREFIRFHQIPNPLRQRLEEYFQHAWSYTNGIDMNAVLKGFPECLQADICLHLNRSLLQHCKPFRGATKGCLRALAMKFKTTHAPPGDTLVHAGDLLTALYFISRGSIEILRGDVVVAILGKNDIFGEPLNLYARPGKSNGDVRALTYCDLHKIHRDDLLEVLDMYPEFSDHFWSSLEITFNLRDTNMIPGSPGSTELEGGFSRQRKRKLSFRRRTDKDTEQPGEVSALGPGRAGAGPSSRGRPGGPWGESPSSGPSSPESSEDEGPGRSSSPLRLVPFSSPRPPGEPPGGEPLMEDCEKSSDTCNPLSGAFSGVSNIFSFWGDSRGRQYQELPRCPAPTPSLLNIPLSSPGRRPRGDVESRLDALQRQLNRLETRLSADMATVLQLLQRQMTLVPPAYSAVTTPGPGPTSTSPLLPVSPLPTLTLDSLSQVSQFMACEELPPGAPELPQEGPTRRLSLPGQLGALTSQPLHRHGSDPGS

On to `C[C@@H]1O[C@H](c2ccncc2NC(=O)c2ccc(F)c(-c3c(F)cccc3F)n2)[C@@H](F)[C@H](O)[C@@]1(C)O` (stereo in doubt) [Example 71, 6-(2,6-difluorophenyl)-5-fluoro-N-(4-((2R,3S,4R,5R,6S)-3-fluoro-4,5-dihydroxy-5,6-dimethyltetrahydro-2H-pyran-2-yl)pyridin-3-yl)picolinamide], for which the half-maximal inhibitory concentration (IC50) in assay [1] is 1 nM; in assay [2], 52 nM; in assay [3], 6 nM; in assay [4], 1480 nM; in assay [6], above 30 µM. Also, it took 6400 nM to reach a half-maximal effect in assay [5] (Homo sapiens, KMS-11) (EC50).
As for `CC[C@]1(O)[C@H](C)O[C@H](c2ccncc2NC(=O)c2ccc(F)c(-c3c(F)cccc3F)n2)C[C@@H]1O` (stereo in doubt) [Example 76, 6-(2,6-difluorophenyl)-N-(4-((2S,4S,5R,6S)-5-ethyl-4,5-dihydroxy-6-methyltetrahydro-2H-pyran-2-yl)pyridin-3-yl)-5-fluoropicolinamide], the IC50 was 1 nM in assay [1]; 2 nM in assay [2]; 1 nM in assay [3]; 100 nM in assay [4]; above 30 µM in assay [6]. Besides, a half-maximal response in assay [5] (Homo sapiens, KMS-11) (EC50) required 200 nM.
In the case of `C[C@@H]1O[C@H](c2ccncc2NC(=O)c2ccc(F)c(-c3c(F)cccc3F)n2)C[C@H](O)[C@@]1(C)O` (stereo in doubt) [Example 112, 6-(2,6-difluorophenyl)-N-(4-((2S,4S,5R,6S)-4,5-dihydroxy-5,6-dimethyltetrahydro-2H-pyran-2-yl)pyridin-3-yl)-5-fluoropicolinamide], the IC50 in assay [1] was 1 nM; in assay [2], 3 nM; in assay [3] it was 2 nM; in assay [4] it was 163 nM; in assay [6] it was above 30 µM. The half-maximal effective concentration (EC50) in assay [5] (Homo sapiens, KMS-11) was found to be 1200 nM.
Turning to `C[C@H]1C[C@@H](O)C[C@@H](c2ccncc2NC(=O)c2csc(-c3c(F)cccc3F)n2)O1` (stereo in doubt) [Example 127, 2-(2,6-difluorophenyl)-N-(4-((2S,4R,6S)-4-hydroxy-6-methyltetrahydro-2H-pyran-2-yl)pyridin-3-yl)thiazole-4-carboxamide], the IC50 in assay [1] is 1 nM; in assay [2], 324 nM; in assay [3], 19 nM; in assay [4] it was 25 nM; in assay [6], above 30 µM. The EC50 in assay [5] (Homo sapiens, KMS-11) is 9600 nM.
As to `C[C@H]1C[C@@H](O)C[C@@H](c2ccncc2NC(=O)c2ccc(F)c(-c3c(F)cccc3F)n2)O1` (stereo in doubt) [Example 128, 6-(2,6-difluorophenyl)-5-fluoro-N-(4-((2S,4R,6S)-4-hydroxy-6-methyltetrahydro-2H-pyran-2-yl)pyridin-3-yl)picolinamide], the IC50 in assay [1] is 1 nM; in assay [2], 28 nM; in assay [3] it was 6 nM; in assay [4], 276 nM; in assay [6], above 30 µM. In assay [5] (Homo sapiens, KMS-11), this compound gave a concentration giving a half-maximal response (EC50) of 9100 nM.
For `CC[C@]1(O)[C@H](O)C[C@H](c2ccncc2NC(=O)c2nc(-c3c(F)cccc3F)ncc2N)O[C@@H]1C` [Example 16, 5-amino-2-(2,6-difluorophenyl)-N-(4-((2R,4R,5S,6R)-5-ethyl-4,5-dihydroxy-6-methyltetrahydro-2H-pyran-2-yl)pyridin-3-yl)pyrimidine-4-carboxamide], the IC50 in assay [1] was 1 nM; in assay [2], 3 nM; in assay [3], 2 nM; in assay [4], 101 nM; in assay [6], above 30 µM. For the same compound, in assay [5], the EC50 amounted to 1940 nM.
For `[2H][C@@H]1[C@@H](O)[C@H](O)[C@@H](CC)O[C@@]1([2H])c1ccncc1NC(=O)c1ccc(F)c(-c2c(F)cccc2F)n1` [Example 54, 6-(2,6-difluorophenyl)-N-(4-((2R,4R,5S,6R)-6-ethyl-4,5-dihydroxy-2,3-didueterotetrahydro-2H-pyran-2-yl)pyridin-3-yl)-5-fluoropicolinamide], the IC50 in assay [1] is 1 nM; in assay [2], 3 nM; in assay [3] it was 2 nM; in assay [4] it was 131 nM; in assay [6] it was above 30 µM. In assay [5] (Homo sapiens, KMS-11), this compound registered an EC50 of 2100 nM.
For the compound `O=C(Nc1cnccc1[C@H]1C[C@@H](O)[C@H](O)[C@@H](CCl)O1)c1ccc(F)c(-c2c(F)cccc2F)n1` [Example 56, N-(4-((2R,4R,5S,6S)-6-(chloromethyl)-4,5-dihydroxytetrahydro-2H-pyran-2-yl)pyridin-3-yl)-6-(2,6-difluorophenyl)-5-fluoropicolinamide], the IC50 was 1 nM in assay [1]; 3 nM in assay [2]; 2 nM in assay [3]; 73 nM in assay [4]; above 30 µM in assay [6]. Also, in assay [5] (Homo sapiens, KMS-11), the half-maximal effective concentration (EC50) is 8300 nM.
As for `CC[C@@]1(O)[C@H](O)C[C@H](c2ccncc2NC(=O)c2ccc(F)c(-c3c(F)cccc3F)n2)O[C@@H]1C` [Example 74, 6-(2,6-difluorophenyl)-N-(4-((2R,4R,5R,6R)-5-ethyl-4,5-dihydroxy-6-methyltetrahydro-2H-pyran-2-yl)pyridin-3-yl)-5-fluoropicolinamide], the IC50 in assay [1] is 1 nM; in assay [2] it was 11 nM; in assay [3], 5 nM; in assay [4] it was 316 nM; in assay [6], above 30 µM. The compound further had an EC50 in assay [5] (Homo sapiens, KMS-11) of 3600 nM.
Regarding `C[C@H]1O[C@@H](c2ccncc2NC(=O)c2cncc(-c3ccccc3)n2)C[C@@H](O)[C@]1(C)O` [Example 85, N-(4-((2R,4R,5S,6R)-4,5-dihydroxy-5,6-dimethyltetrahydro-2H-pyran-2-yl)pyridin-3-yl)-6-phenylpyrazine-2-carboxamide], the IC50 in assay [1] is 221 nM; in assay [2], 20600 nM; in assay [3] it was 564 nM; in assay [4], 257 nM; in assay [6], above 30 µM. Further, the EC50 in assay [5] (Homo sapiens, KMS-11) was above 10000 nM.
For `C[C@@H]1O[C@H](c2ccncc2NC(=O)c2cncc(-c3ccccc3)n2)C[C@H](O)[C@@]1(C)O` [Example 87, N-(4-((2S,4S,5R,6S)-4,5-dihydroxy-5,6-dimethyltetrahydro-2H-pyran-2-yl)pyridin-3-yl)-6-phenylpyrazine-2-carboxamide], the half-maximal inhibitory concentration (IC50) in assay [1] is 937 nM; in assay [2], above 25000 nM; in assay [3], 2670 nM; in assay [4] it was 809 nM; in assay [6], above 30 µM. Besides, the EC50 in assay [5] (Homo sapiens, KMS-11) was above 10000 nM.
For the compound `CC(C)NC(=O)c1ccc(F)c(-c2ccc(N)c(C(=O)Nc3cnccc3[C@@H]3C[C@@H](O)[C@](C)(O)[C@@H](C)O3)n2)c1F` [Example 98, 3-amino-6-(2,6-difluoro-3-(isopropylcarbamoyl)phenyl)-N-(4-((2S,4R,5S,6R)-4,5-dihydroxy-5,6-dimethyltetrahydro-2H-pyran-2-yl)pyridin-3-yl)picolinamide], the IC50 in assay [1] was 2 nM; in assay [2] it was 2 nM; in assay [3] it was 3 nM; in assay [4], 916 nM; in assay [6] it was above 30 µM. For the same compound, the EC50 in assay [5] (Homo sapiens, KMS-11) is 500 nM.
For `CC(C)NC(=O)c1ccc(F)c(-c2ccc(N)c(C(=O)Nc3cnccc3[C@H]3C[C@@H](O)[C@](C)(O)[C@@H](C)O3)n2)c1` [Example 104, 3-amino-N-(4-((2R,4R,5S,6R)-4,5-dihydroxy-5,6-dimethyltetrahydro-2H-pyran-2-yl)pyridin-3-yl)-6-(2-fluoro-5-(isopropylcarbamoyl)phenyl)picolinamide], the IC50 in assay [1] was 2 nM; in assay [2] it was 3 nM; in assay [3] it was 2 nM; in assay [4], 979 nM; in assay [6] it was above 30 µM. The compound also gave an EC50 in assay [5] (Homo sapiens, KMS-11) of 2300 nM.

The term IC50 denotes the midpoint of a concentration-inhibition curve. For orientation: EC50 means the concentration that produces a half-maximal response. Low readings indicate a more potent agent, high ones a less potent agent.
